Values of other authors, collected in US20070184110A1, “Dipyridamole extended-release formulations and process for preparing same” (priority 2006, published 2007).

Conditions: above a pH of 4

solubility in water: practically insoluble
Compound: OCCN(CCO)c1nc(N2CCCCC2)c2nc(N(CCO)CCO)nc(N3CCCCC3)c2n1 [Dipyridamole, 2,6-bis-(diethanolamino)-4,8-dipiperidino-(5,4-d)-pyrimidine]
